What was measured:
Assay in all cases: KAM-matrix competition in K562 lysate;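 as to 0.001 uM KAM: median log10 fold change of treatment over DMSO control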;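 as to 0.01 uM KAM: median log10 fold change of treatment over DMSO control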;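 as to 0.1 uM KAM: median log10 fold change of treatment over DMSO control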;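 as to 1 uM KAM: median log10 fold change of treatment over DMSO control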;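 as to 10 uM KAM: median log10 fold change of treatment over DMSO control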
Type in all cases: binding
TGFBR2 = target: T1, TGFBR2 (Homo sapiens, UniProt P37173)
T1 construct: endogenous in cells; host or cells: K562
Procedure: (§1) Supplement 12953_2017_125_MOESM1_ESM.zip/MS_Supp Info.xlsx, sheet "KAM" | column: 10 uM KAM; 1 uM KAM; 0.1 uM KAM; 0.01 uM KAM; 0.001 uM KAM; RB50

PKN2 = target: T2, PKN2 (Homo sapiens, UniProt Q16513);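 as to 0.001 uM KAM: median log10 fold change of treatment over DMSO control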;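 as to 0.01 uM KAM: median log10 fold change of treatment over DMSO control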;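 as to 0.1 uM KAM: median log10 fold change of treatment over DMSO control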;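 as to 1 uM KAM: median log10 fold change of treatment over DMSO control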;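 as to 10 uM KAM: median log10 fold change of treatment over DMSO control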
T2 construct: endogenous in cells; host or cells: K562
Procedure: as §1

PRKACG = target: T3, PRKACG (Homo sapiens, UniProt P22612);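 as to 0.001 uM KAM: median log10 fold change of treatment over DMSO control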;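 as to 0.01 uM KAM: median log10 fold change of treatment over DMSO control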;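 as to 0.1 uM KAM: median log10 fold change of treatment over DMSO control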;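 as to 1 uM KAM: median log10 fold change of treatment over DMSO control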;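 as to 10 uM KAM: median log10 fold change of treatment over DMSO control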
T3 construct: endogenous in cells; host or cells: K562
Procedure: as §1

TEC = target: T4, TEC (Homo sapiens, UniProt P42680)
T4 construct: endogenous in cells; host or cells: K562 cell lysate
T4 sequence (P42680 1-631): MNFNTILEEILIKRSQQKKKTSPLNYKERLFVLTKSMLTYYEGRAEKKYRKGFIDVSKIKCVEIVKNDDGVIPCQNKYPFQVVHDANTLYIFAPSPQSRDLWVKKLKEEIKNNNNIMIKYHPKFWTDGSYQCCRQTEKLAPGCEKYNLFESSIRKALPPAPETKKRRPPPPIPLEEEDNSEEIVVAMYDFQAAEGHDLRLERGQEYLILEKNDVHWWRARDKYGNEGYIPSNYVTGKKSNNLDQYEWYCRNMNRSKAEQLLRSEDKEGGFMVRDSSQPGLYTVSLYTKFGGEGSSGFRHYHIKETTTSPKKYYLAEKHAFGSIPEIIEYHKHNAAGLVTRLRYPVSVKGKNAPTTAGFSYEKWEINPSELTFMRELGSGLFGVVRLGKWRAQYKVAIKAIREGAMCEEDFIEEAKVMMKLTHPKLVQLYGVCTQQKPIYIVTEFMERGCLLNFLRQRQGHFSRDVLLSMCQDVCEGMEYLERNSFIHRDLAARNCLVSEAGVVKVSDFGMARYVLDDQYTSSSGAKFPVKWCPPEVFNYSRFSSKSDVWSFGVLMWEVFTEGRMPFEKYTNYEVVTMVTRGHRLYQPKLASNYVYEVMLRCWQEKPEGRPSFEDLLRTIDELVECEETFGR
Procedure: as §1

GAK = target: T5, GAK (Homo sapiens, UniProt O14976)
T5 construct: endogenous in cells; host or cells: K562 cell lysate
T5 sequence (O14976 1-1311): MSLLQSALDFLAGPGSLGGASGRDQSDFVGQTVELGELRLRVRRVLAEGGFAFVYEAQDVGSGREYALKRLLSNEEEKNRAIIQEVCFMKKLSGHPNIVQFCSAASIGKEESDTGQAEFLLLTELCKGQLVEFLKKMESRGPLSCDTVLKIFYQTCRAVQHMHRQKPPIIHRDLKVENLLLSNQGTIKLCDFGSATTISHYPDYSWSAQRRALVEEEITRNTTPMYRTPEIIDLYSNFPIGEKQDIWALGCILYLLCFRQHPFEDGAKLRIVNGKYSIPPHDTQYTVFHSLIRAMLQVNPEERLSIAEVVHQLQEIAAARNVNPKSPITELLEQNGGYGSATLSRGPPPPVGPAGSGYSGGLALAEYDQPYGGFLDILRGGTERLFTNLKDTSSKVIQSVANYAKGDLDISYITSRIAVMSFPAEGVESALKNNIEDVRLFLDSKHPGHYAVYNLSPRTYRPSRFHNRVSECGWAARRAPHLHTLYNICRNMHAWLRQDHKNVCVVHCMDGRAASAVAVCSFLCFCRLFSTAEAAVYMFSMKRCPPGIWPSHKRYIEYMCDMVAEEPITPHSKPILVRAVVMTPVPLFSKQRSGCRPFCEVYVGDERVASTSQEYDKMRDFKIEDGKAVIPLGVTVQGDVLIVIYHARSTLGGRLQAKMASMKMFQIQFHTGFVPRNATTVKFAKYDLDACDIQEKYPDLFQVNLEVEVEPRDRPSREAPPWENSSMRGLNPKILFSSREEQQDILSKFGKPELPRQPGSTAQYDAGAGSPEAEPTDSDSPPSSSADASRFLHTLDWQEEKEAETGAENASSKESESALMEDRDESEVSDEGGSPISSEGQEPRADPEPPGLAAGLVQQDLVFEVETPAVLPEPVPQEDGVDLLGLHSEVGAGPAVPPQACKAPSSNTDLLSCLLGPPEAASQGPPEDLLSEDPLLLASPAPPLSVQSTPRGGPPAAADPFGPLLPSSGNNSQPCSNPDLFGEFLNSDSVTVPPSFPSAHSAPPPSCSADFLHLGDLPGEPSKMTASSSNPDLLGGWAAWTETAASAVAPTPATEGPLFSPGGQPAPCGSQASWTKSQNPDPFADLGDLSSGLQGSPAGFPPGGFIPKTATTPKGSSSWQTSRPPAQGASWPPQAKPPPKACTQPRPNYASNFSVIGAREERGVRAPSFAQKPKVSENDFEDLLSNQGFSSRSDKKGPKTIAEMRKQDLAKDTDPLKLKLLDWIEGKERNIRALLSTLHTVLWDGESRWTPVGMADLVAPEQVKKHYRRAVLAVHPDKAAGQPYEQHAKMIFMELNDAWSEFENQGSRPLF
Procedure: as §1

HIPK3 = target: T6, HIPK3 (Homo sapiens, UniProt Q9H422);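 as to 0.001 uM KAM: median log10 fold change of treatment over DMSO control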;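 as to 0.01 uM KAM: median log10 fold change of treatment over DMSO control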;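 as to 0.1 uM KAM: median log10 fold change of treatment over DMSO control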;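 as to 1 uM KAM: median log10 fold change of treatment over DMSO control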;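 as to 10 uM KAM: median log10 fold change of treatment over DMSO control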
T6 construct: endogenous in cells; host or cells: K562 cells (combined S0.8 and P0.8 lysate)
Procedure: as §1

STK24 = target: T7, STK24 (Homo sapiens, UniProt Q9Y6E0);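 as to 0.001 uM KAM: median log10 fold change of treatment over DMSO control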;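 as to 0.01 uM KAM: median log10 fold change of treatment over DMSO control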;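 as to 0.1 uM KAM: median log10 fold change of treatment over DMSO control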;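 as to 1 uM KAM: median log10 fold change of treatment over DMSO control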;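 as to 10 uM KAM: median log10 fold change of treatment over DMSO control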
T7 construct: endogenous in cells; host or cells: K562
Procedure: as §1

[1] = read-out: RB50 (the source's name)
[2] = KAM 0.001-10 uM, read-out: RB50 (the source's name)

T6 sequence (Q9H422 whole entry): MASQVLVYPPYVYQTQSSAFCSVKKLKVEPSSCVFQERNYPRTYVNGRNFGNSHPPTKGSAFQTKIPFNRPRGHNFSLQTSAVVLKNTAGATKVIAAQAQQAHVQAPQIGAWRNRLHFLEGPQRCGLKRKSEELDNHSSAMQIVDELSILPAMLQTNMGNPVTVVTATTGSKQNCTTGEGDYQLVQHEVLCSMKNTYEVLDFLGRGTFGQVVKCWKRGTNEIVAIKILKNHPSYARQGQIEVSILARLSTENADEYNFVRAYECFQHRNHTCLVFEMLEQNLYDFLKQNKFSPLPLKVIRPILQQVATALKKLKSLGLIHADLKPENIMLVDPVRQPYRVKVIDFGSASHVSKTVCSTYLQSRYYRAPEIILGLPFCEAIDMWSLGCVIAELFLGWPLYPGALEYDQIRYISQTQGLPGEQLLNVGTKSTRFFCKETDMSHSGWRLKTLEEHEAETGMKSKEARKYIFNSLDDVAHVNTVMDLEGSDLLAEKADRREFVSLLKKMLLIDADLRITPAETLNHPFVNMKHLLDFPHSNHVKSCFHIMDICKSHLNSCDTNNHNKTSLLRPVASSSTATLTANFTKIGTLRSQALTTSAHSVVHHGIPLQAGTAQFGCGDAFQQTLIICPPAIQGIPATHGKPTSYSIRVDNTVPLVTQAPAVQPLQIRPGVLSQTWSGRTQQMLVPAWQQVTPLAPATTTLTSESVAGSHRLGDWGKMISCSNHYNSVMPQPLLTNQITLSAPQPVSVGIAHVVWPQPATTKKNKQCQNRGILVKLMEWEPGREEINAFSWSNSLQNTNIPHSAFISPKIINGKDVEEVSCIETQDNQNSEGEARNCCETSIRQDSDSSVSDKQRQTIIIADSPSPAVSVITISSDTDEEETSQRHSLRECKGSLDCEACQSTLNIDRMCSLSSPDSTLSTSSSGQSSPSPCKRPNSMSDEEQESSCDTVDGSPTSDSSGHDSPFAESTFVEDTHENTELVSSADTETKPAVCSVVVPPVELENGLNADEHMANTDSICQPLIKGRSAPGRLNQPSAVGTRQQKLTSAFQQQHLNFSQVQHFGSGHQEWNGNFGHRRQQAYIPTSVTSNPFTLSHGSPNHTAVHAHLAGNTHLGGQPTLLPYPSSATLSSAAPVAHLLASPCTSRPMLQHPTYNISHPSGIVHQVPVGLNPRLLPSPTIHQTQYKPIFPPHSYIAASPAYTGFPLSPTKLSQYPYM
T3 sequence (P22612 whole entry): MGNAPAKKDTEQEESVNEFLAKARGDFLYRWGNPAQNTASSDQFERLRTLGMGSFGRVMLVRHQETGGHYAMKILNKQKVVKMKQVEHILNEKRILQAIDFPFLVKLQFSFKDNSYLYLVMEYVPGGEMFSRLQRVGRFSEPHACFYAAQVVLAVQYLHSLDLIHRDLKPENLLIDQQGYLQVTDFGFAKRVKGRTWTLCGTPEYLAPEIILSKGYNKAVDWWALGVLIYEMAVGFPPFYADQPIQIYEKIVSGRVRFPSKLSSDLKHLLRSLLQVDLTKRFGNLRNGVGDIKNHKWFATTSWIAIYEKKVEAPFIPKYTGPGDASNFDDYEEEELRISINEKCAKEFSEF
T7 sequence (Q9Y6E0 whole entry): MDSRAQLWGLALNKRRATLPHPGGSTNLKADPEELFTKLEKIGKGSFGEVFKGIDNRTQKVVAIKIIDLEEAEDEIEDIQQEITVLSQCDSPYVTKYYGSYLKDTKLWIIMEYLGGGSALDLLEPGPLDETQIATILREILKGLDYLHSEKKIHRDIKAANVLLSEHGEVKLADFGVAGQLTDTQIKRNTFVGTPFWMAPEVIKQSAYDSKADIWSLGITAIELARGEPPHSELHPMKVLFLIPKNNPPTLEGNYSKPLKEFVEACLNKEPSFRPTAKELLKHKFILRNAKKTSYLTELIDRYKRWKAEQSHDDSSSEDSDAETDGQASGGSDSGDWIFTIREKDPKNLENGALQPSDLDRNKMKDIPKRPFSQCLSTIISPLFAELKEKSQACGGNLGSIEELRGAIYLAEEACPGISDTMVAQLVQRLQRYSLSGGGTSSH
T1 sequence (P37173 23-567): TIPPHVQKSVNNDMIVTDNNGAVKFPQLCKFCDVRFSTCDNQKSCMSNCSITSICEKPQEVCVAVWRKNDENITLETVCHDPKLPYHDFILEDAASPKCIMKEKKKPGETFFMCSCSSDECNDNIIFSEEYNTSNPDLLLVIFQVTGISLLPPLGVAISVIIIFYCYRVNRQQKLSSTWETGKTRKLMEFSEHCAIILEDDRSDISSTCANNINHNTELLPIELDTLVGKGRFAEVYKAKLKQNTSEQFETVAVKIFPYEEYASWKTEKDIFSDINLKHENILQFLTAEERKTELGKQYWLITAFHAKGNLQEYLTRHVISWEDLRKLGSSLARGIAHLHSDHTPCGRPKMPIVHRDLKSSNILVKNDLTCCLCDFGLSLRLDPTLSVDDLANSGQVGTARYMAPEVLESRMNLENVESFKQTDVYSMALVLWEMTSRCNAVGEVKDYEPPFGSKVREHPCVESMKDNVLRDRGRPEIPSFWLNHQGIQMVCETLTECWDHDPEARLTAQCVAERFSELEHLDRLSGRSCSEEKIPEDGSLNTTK
T2 sequence (Q16513 whole entry): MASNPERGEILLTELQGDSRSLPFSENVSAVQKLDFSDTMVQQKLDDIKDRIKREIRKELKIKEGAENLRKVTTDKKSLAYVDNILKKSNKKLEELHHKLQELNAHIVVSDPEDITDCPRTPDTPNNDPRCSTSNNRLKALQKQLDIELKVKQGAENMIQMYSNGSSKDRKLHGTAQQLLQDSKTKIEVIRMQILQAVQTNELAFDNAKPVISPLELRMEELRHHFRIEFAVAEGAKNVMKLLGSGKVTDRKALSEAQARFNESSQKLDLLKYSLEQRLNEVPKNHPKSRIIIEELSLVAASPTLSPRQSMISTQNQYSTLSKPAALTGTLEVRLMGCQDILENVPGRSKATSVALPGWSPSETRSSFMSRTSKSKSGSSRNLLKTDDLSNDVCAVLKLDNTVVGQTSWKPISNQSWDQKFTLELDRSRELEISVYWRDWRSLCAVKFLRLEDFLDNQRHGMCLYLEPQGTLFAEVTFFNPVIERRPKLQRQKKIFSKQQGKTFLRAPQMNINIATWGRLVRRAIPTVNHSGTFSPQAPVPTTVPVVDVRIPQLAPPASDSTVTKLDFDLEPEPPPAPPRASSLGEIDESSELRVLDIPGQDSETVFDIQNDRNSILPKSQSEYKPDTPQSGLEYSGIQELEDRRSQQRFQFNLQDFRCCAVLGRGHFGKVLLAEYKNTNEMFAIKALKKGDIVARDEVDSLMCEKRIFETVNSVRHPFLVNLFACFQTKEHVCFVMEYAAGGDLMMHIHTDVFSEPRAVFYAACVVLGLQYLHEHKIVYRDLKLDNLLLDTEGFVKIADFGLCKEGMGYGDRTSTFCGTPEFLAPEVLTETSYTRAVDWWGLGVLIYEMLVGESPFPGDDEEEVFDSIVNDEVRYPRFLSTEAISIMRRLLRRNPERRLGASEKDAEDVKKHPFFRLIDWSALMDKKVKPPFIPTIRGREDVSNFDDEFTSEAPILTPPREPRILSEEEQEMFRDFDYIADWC

Structure (SMILES): N#CCc1ccc(Nc2nc(NCCCN)cc(Nc3cc(C4CC4)[nH]n3)n2)cc1 [KAM]
- median Log10 fold change (TGFBR2; 0.001 uM KAM): 0.03003
- median Log10 fold change (TGFBR2; 0.01 uM KAM): -0.09645
- median Log10 fold change (TGFBR2; 0.1 uM KAM): -0.3569
- median Log10 fold change (TGFBR2; 1 uM KAM): -0.3895
- median Log10 fold change (TGFBR2; 10 uM KAM): -0.4032
- IC50 (TGFBR2; [1]): 0.117 µM
- IC50 (PKN2; [2]): > 10 µM
- 0.001 uM KAM (PKN2; relative to 0 uM KAM = 0): -0.006639
- 0.01 uM KAM (PKN2; relative to 0 uM KAM = 0): 0.00337
- 0.1 uM KAM (PKN2; relative to 0 uM KAM = 0): -0.04124
- 1 uM KAM (PKN2; relative to 0 uM KAM = 0): -0.08858
- 10 uM KAM (PKN2; relative to 0 uM KAM = 0): -0.1344
- IC50 (PRKACG; [2]): > 10 µM
- 0.001 uM KAM (PRKACG; relative to 0 uM KAM = 0): -0.03855
- 0.01 uM KAM (PRKACG; relative to 0 uM KAM = 0): 0.1471
- 0.1 uM KAM (PRKACG; relative to 0 uM KAM = 0): 0.178
- 1 uM KAM (PRKACG; relative to 0 uM KAM = 0): 0.2462
- 10 uM KAM (PRKACG; relative to 0 uM KAM = 0): 0.202
- median Log10 fold change (TEC; 0.001 uM KAM): -0.06308
- median Log10 fold change (TEC; 0.01 uM KAM): -0.04798
- median Log10 fold change (TEC; 0.1 uM KAM): -0.155
- median Log10 fold change (TEC; 1 uM KAM): -0.2973
- median Log10 fold change (TEC; 10 uM KAM): -0.4239
- IC50 (TEC; [1]): 1.16 µM
- median Log10 fold change (GAK; 0.001 uM KAM): -0.03137
- median Log10 fold change (GAK; 0.01 uM KAM): -0.03807
- median Log10 fold change (GAK; 0.1 uM KAM): -0.2019
- median Log10 fold change (GAK; 1 uM KAM): -0.4109
- median Log10 fold change (GAK; 10 uM KAM): -0.5049
- IC50 (GAK; [1]): 0.424 µM
- IC50 (HIPK3; [2]): > 10 µM
- 0.001 uM KAM (HIPK3; relative to 0 uM KAM = 0): -0.01362
- 0.01 uM KAM (HIPK3; relative to 0 uM KAM = 0): -0.04323
- 0.1 uM KAM (HIPK3; relative to 0 uM KAM = 0): -0.04392
- 1 uM KAM (HIPK3; relative to 0 uM KAM = 0): -0.1209
- 10 uM KAM (HIPK3; relative to 0 uM KAM = 0): -0.16
- IC50 (STK24; [2]): > 10 µM
- 0.001 uM KAM (STK24; relative to 0 uM KAM = 0): -0.01012
- 0.01 uM KAM (STK24; relative to 0 uM KAM = 0): -0.03939
- 0.1 uM KAM (STK24; relative to 0 uM KAM = 0): -0.06162
- 1 uM KAM (STK24; relative to 0 uM KAM = 0): -0.2602
- 10 uM KAM (STK24; relative to 0 uM KAM = 0): -0.2058
